# From US20190269129A1, “COMPOSITION CONTAINING 1,2-DIBROMO-2,4-DICYANOBUTANE (DBDCB) AND ZINC PYRITHIONE (ZPT)” (LANXESS Deutschland GmbH, priority 2014, published 2019)
# Tests used:
# Format in all cases: cell-based
# Settings in all cases: 0.05 wt % biocide added
# [1] = tested on: Yeasts: Candida albicans and Rhodotorula rubra; experiment: Microbiological stress test, preservation of a polymer emulsion: yeasts
# Excerpt: (§1) The preserving effect of an inventive composition comprising DBDCB and ZPT in a polymer emulsion (acrylate-based, pH=6.5) was investigated using a microbiological stress test. The microbiological stress test examines the susceptibility of water-based systems to microbial attack and the effect of preservatives. To this end, the preservatives are incorporated in defined concentrations into the water-based systems. […] Having knowledge of the microorganism populations prevalent in polymer emulsions and dispersions the experiment employed a mixture of the following microorganism types for testing: Yeasts: Candida albicans and Rhodotorula rubra.
# [2] = tested on: Molds: Acremonium strictum, Aspergillus niger and Geotrichum candidu; experiment: Microbiological stress test, preservation of a polymer emulsion: molds
# Excerpt: as §1, with “Molds: Acremonium strictum, Aspergillus niger” for “Yeasts: Candida albicans”, “Geotrichum candidu.” for “Rhodotorula rubra.”
# [3] = tested on: Bacteria: Escherichia coli, Pseudomonas aeruginosa and Staphylococcus aureus; experiment: Microbiological stress test, preservation of a polymer emulsion: bacteria
# Excerpt: as §1, with “Bacteria: Escherichia coli, Pseudomonas aeruginosa” for “Yeasts: Candida albicans”, “Staphylococcus aureus.” for “Rhodotorula rubra.”
# [4] = week 1, polymer emulsion pH 6.5
# [5] = week 2, polymer emulsion pH 6.5
# [6] = week 3, polymer emulsion pH 6.5
# [7] = week 4, polymer emulsion pH 6.5
# [8] = week 5, polymer emulsion pH 6.5
# [9] = week 6, polymer emulsion pH 6.5
compound,measurement,setting,value
"[O-][n+]1ccccc1[S-].[O-][n+]1ccccc1[S-].[Zn+2] [ZPT, zinc bis[2-pyridinethiolate]-N,N-dioxide]","Activity of the biocides determined 1 week after germ addition, week 1",[1]; [4],2 (markedly reduced microbe level is observed (10^3−10^1 bacteria/10^2−10^1 mold/yeast cells per g) (score of 2=good))
same,"Activity of the biocides determined 1 week after germ addition, week 2",[1]; [5],2 (markedly reduced microbe level is observed (10^3−10^1 bacteria/10^2−10^1 mold/yeast cells per g) (score of 2=good))
same,"Activity of the biocides determined 1 week after germ addition, week 3",[1]; [6],2 (markedly reduced microbe level is observed (10^3−10^1 bacteria/10^2−10^1 mold/yeast cells per g) (score of 2=good))
same,"Activity of the biocides determined 1 week after germ addition, week 4",[1]; [7],2 (markedly reduced microbe level is observed (10^3−10^1 bacteria/10^2−10^1 mold/yeast cells per g) (score of 2=good))
same,"Activity of the biocides determined 1 week after germ addition, week 5",[1]; [8],2 (markedly reduced microbe level is observed (10^3−10^1 bacteria/10^2−10^1 mold/yeast cells per g) (score of 2=good))
same,"Activity of the biocides determined 1 week after germ addition, week 6",[1]; [9],2 (markedly reduced microbe level is observed (10^3−10^1 bacteria/10^2−10^1 mold/yeast cells per g) (score of 2=good))
same,"Activity of the biocides determined 1 week after germ addition, week 1",[2]; [4],2 (markedly reduced microbe level is observed (10^3−10^1 bacteria/10^2−10^1 mold/yeast cells per g) (score of 2=good))
same,"Activity of the biocides determined 1 week after germ addition, week 2",[2]; [5],2 (markedly reduced microbe level is observed (10^3−10^1 bacteria/10^2−10^1 mold/yeast cells per g) (score of 2=good))
same,"Activity of the biocides determined 1 week after germ addition, week 3",[2]; [6],2 (markedly reduced microbe level is observed (10^3−10^1 bacteria/10^2−10^1 mold/yeast cells per g) (score of 2=good))
same,"Activity of the biocides determined 1 week after germ addition, week 4",[2]; [7],2 (markedly reduced microbe level is observed (10^3−10^1 bacteria/10^2−10^1 mold/yeast cells per g) (score of 2=good))
same,"Activity of the biocides determined 1 week after germ addition, week 5",[2]; [8],2 (markedly reduced microbe level is observed (10^3−10^1 bacteria/10^2−10^1 mold/yeast cells per g) (score of 2=good))
same,"Activity of the biocides determined 1 week after germ addition, week 6",[2]; [9],2 (markedly reduced microbe level is observed (10^3−10^1 bacteria/10^2−10^1 mold/yeast cells per g) (score of 2=good))
same,"Activity of the biocides determined 1 week after germ addition, week 1",[3]; [4],0 (no reduction or only a minor reduction of the microbe level is observed (residual level of at least 10^5 bacteria/10^4 mold/yeast cells per g) (score of 0=poor))
same,"Activity of the biocides determined 1 week after germ addition, week 2",[3]; [5],0 (no reduction or only a minor reduction of the microbe level is observed (residual level of at least 10^5 bacteria/10^4 mold/yeast cells per g) (score of 0=poor))
same,"Activity of the biocides determined 1 week after germ addition, week 3",[3]; [6],0 (no reduction or only a minor reduction of the microbe level is observed (residual level of at least 10^5 bacteria/10^4 mold/yeast cells per g) (score of 0=poor))
same,"Activity of the biocides determined 1 week after germ addition, week 4",[3]; [7],0 (no reduction or only a minor reduction of the microbe level is observed (residual level of at least 10^5 bacteria/10^4 mold/yeast cells per g) (score of 0=poor))
same,"Activity of the biocides determined 1 week after germ addition, week 5",[3]; [8],0 (no reduction or only a minor reduction of the microbe level is observed (residual level of at least 10^5 bacteria/10^4 mold/yeast cells per g) (score of 0=poor))
same,"Activity of the biocides determined 1 week after germ addition, week 6",[3]; [9],0 (no reduction or only a minor reduction of the microbe level is observed (residual level of at least 10^5 bacteria/10^4 mold/yeast cells per g) (score of 0=poor))
